# Assay results taken from patent publication EP0975351B1, “TREATMENT OF MULTIPLE SCLEROSIS THROUGH INGESTION OF COPOLYMER-1” (YEDA RESEARCH AND DEVELOPMENT CO. LTD., priority 1997, dated 1998).
# Key:
# spleen cells = test: Proliferation assay of spleen cells in response to GPBP, fed mice; format: cell-based; details: spleen cells of orally fed mice, 10-11 days after EAE induction (Figure 2)
# Protocol: Induction and Assessment of EAE - Mice were injected with 200 µg GPBP emulsified in an equal volume of complete Freund's adjuvant (CFA) containing 4 mg/ml mycobacterium tuberculosis (H37Ra) (Difco Lab, Detroit, Mich.). The emulsion at a total volume of 0.1 ml was injected into all four footpads. Immediately after and 24 hours later, pertussis toxin (250ng/mouse) (Sigma) was injected intravenously.
# Induction of Oral Tolerance - Mice were fed with 250 µg GPBP or glatiramer acetate dissolved in phosphate buffered saline (PBS) on days -7, -5, -3, 0, 2, 4 and 6 by gastric intubation with an 18-gauge stainless steel feeding needle (Thomas). EAE was induced on day 0.
# (§1) Proliferation Assay - The proliferation response of spleen cells was tested 10-11 days after EAE induction as described above. Cells from 3 animals in each group were pooled and cultured in triplicate (5x10^5 mouse cells and 2x10^5 rat cells) in microtiter plates with various antigen concentrations (GPBP) in a final volume of 0.2ml. Microtiter plates contained RPMI 1640 (available from Sigma Biochemicals, St. Louis, Missouri) culture medium supplemented with 1% autologous serum. After 72 hr. of incubation, cells were pulsed with 1 µCi {^3H}-thymidine for 18 hr and then harvested onto filter papers and radioactivity was counted.
# [1] = test system: MBP-specific T suppressor Inducer factor; test: Assay for MBP-specific T suppressor inducer factor in plasma (3C9 antibody); format: in vivo, Rhesus Monkeys; details: for MBP-specific T suppressor Inducer factor: plasma 1:20 dilution; for anti-Tsfi (3C9 Ab): plasma material bound to MBP (2.5µg)
# Description: The analysis, for MBP-specific Tsfi in the plasma of the three monkeys in this Example are seen in Tables 5 and 6 below. None of the animals produced MBP-specific Tsfi until day +13 following EAE induction with MBP. […] Glatiramer acetate fed animals 18497 and 18498 consistently produced significant levels of Tsfi from day +13 until day +41 shortly before termination.
# Recombinant human TGF-beta reacted with the anti-TGF-beta, but not 3C9 antibody. Table 5: Assay for MBP-specific T suppressor Inducer factora
# [2] = test system: rat spleen cell suspension stimulated with GPBP; test: Proliferation assay of spleen cells in response to GPBP, fed rats; format: cell-based; details: spleen cells of orally fed rats, 10-11 days after EAE induction (Figure 1)
# Protocol: (§2) Rats were immunized with 25 µg of GPBP emulsified 1:1 in CFA containing 4 mg/ml. H37Ra. The emulsion at a total volume of 0.1 ml. was injected into the two hindfoot pads.
# (§3) Rats were fed with 1 mg GPBP or glatiramer acetate dissolved in PBS by gastric intubation using a sterile feeding tube (Uno Plast, Denmark). Rats were fed 5 times (total dose of 5 mg) before disease induction at intervals of 2-3 days. EAE was induced two days after the last feeding. Control mice and rats were mock fed with PBS.
# as §1
# EAE [3] = test: Dose response study of oral Copolymer-1 in rats (EAE); format: in vivo; details: for Mean Score ±SD: PBS control 1.32±0.64; for Incidence: PBS control 10/11; for Mean Onset: PBS control 13.1; for Suppression* (%): calculated by mean score
# Protocol: as §2
# Animals were examined daily from day 10 post induction for signs of disease. EAE was scored as follows: 0-no disease, 1-limp tail, 2-hind limb paralysis, 3-paralysis of all four limbs, 4-moribund condition, 5-death.
# as §3
# Rats were fed 5 times with 0.5, 1 or 2 mg glatiramer acetate according to the established protocol (see Materials and Methods, above) and then challenged for EAE induction.
# [4] = test system: experimental allergic encephalomyelitis (EAE); details: EAE induced by MSCH, MBP, PLP, MOG in a variety of species; cited from earlier work
# [5] = test system: exacerbating-remitting multiple sclerosis; details: daily subcutaneous injections, phase III clinical trials; cited from earlier work
# EAE [6] = test: Induction of EAE in Rhesus monkeys, oral enteric-coated capsules, clinical scoring (Example 3); format: in vivo
# Protocol: Glatiramer acetate was provided by Teva Pharmaceutical Industries Ltd. in an enteric-coated hard gelatin capsule comprising two dosage levels: 1 mg of glatiramer acetate and 20 mg of glatiramer acetate. Each dosage level was formulated using mannitol, and coated with Eudragit L30D55. Placebo or control capsules comprised capsules containing 5 mg of sugar.
# 3 Rhesus monkeys were treated as follows: One monkey served as control and was fed with placebo capsules (containing 5mg glucose only). The second and third monkeys were fed with glatiramer acetate containing capsules at a dose of 1mg/feeding and 20mg/feeding, respectively. Animals were fed every other day for a total of 10 feedings: 5 times prior to disease induction (immunization on day 0) and then 5 times after immunization.
# Disease was induced on day 0 by an intradermal injection of 8mg bovine - MBP and 3 mg H37Ra M. tuberculosis in FCA into the hind footpads, total injected volume between 0.1 and 0.15 ml per footpad. The animals were followed for clinical manifestations of EAE, a variety of serum and CSF immunological markers and spinal cord and cranial MRI's.
# [7] = animal 18497, 1mg/feeding then 20mg capsules after day 33, day +41
# [8] = animal 18497, 1mg/feeding, day +6
# [9] = animal 18497, 1mg/feeding, day +13
# [10] = animal 18497, 1mg/feeding, day +27
# [11] = animal 18498, 20mg/feeding, day +6
# [12] = animal 18498, 20mg/feeding, day +13
# [13] = animal 18498, 20mg/feeding, day +27
# [14] = animal 18498, 20mg/feeding, day +41
substance,measurement,setting,value
glatiramer acetate,proliferative responses to GPBP,spleen cells,almost complete inhibition
same,MBP-specific T suppressor Inducer factor,"[1]; animal 18497, 1mg/feeding then 20mg capsules after day 33, day +34",.66 OD at 405nm
same,MBP-specific T suppressor Inducer factor,[1]; [7],.76 OD at 405nm
same,MBP-specific T suppressor Inducer factor,[1]; [8],none
same,MBP-specific T suppressor Inducer factor,[1]; [9],.60 OD at 405nm
same,MBP-specific T suppressor Inducer factor,"[1]; animal 18497, 1mg/feeding, day +20",.61 OD at 405nm
same,MBP-specific T suppressor Inducer factor,[1]; [10],.56 OD at 405nm
same,MBP-specific T suppressor Inducer factor,"[1]; animal 18497, 1mg/feeding, day -1",none
same,MBP-specific T suppressor Inducer factor,"[1]; animal 18497, 1mg/feeding, day -13",none
same,MBP-specific T suppressor Inducer factor,[1]; [11],none
same,MBP-specific T suppressor Inducer factor,[1]; [12],.32 OD at 405nm
same,MBP-specific T suppressor Inducer factor,"[1]; animal 18498, 20mg/feeding, day +20",.32 OD at 405nm
same,MBP-specific T suppressor Inducer factor,[1]; [13],.42 OD at 405nm
same,MBP-specific T suppressor Inducer factor,"[1]; animal 18498, 20mg/feeding, day +34",.40 OD at 405nm
same,MBP-specific T suppressor Inducer factor,[1]; [14],.40 OD at 405nm
same,MBP-specific T suppressor Inducer factor,"[1]; animal 18498, 20mg/feeding, day -1",none
same,MBP-specific T suppressor Inducer factor,"[1]; animal 18498, 20mg/feeding, day -13",none
same,anti-Tsfi (3C9 Ab),[1]; [7],0.76 OD405 nm
same,anti-Tsfi (3C9 Ab),[1]; [8],none
same,anti-Tsfi (3C9 Ab),[1]; [9],0.60 OD405 nm
same,anti-Tsfi (3C9 Ab),[1]; [10],0.56 OD405 nm
same,anti-Tsfi (3C9 Ab),[1]; [11],none
same,anti-Tsfi (3C9 Ab),[1]; [12],0.32 OD405 nm
same,anti-Tsfi (3C9 Ab),[1]; [13],0.42 OD405 nm
same,anti-Tsfi (3C9 Ab),[1]; [14],0.40 OD405 nm
same,proliferative responses to GPBP,[2],almost complete inhibition
same,Mean Score ±SD,EAE [3]; rats fed 5 times 0.5 mg,0.95±0.57
same,Incidence,EAE [3]; rats fed 5 times 0.5 mg,9/11
same,Mean Onset,EAE [3]; rats fed 5 times 0.5 mg,13.5
same,Suppression* (%),EAE [3]; rats fed 5 times 0.5 mg,28%
same,Mean Score ±SD,EAE [3]; rats fed 5 times 1 mg,0.64±0.50
same,Incidence,EAE [3]; rats fed 5 times 1 mg,7/11
same,Mean Onset,EAE [3]; rats fed 5 times 1 mg,15.1
same,Suppression* (%),EAE [3]; rats fed 5 times 1 mg,51%
same,Mean Score ±SD,EAE [3]; rats fed 5 times 2 mg,0.91±0.70
same,Incidence,EAE [3]; rats fed 5 times 2 mg,8/11
same,Mean Onset,EAE [3]; rats fed 5 times 2 mg,13.1
same,Suppression* (%),EAE [3]; rats fed 5 times 2 mg,31%
same,suppression of EAE,[4],suppress experimental allergic encephalomyelitis (EAE)
same,progression of disability and relapse rate,[5],slow progression of disability and reduce the relapse rate
same,day of first (minimal) symptoms,"EAE [6]; animal 18497, 1mg/feeding, 10 feedings",25 days
same,time until clinical signs dropped to zero,"EAE [6]; animal 18497, after day 33 fed 20mg capsules 5 times on alternate days, remained zero until day 60",≤ 3 days
same,clinical symptoms,"EAE [6]; animal 18498, 20mg/feeding, 10 feedings, 60 day observation period, placebo animal score 4+ , sacrificed day 28",did not show any significant clinical symptoms
